Source: patent US11053204B2, “Pyrimidinyloxy benzene derivatives as herbicides” (FMC Corporation, priority 2015, dated 2021)

Tests used:
Type in all cases: in vivo
[1] = system: Italian ryegrass (Lolium multiflorum); test: Test A preemergence, visual injury rating; conditions: 0 to 100 scale (0 no effect, 100 complete control)
From the text: (§1) Seeds of plant species selected from barnyardgrass (Echinochloa crus-galli), kochia (Kochia scoparia), ragweed (common ragweed, Ambrosia elatior), Italian ryegrass (Lolium multiflorum), large (Lg) crabgrass (Digitaria sanguinalis), giant foxtail (Setaria faberii), morningglory (Ipomoea spp.), pigweed (Amaranthus retroflexus), velvetleaf (Abutilon theophrasti), wheat (Triticum aestivum), and corn (Zea mays) were planted into a blend of loam soil and sand and treated preemergence with a directed soil spray using test chemicals formulated in a non-phytotoxic solvent mixture which included a surfactant.
(§2) At the same time, plants selected from these crop and weed species and also blackgrass (Alopecurus myosuroides), and galium (catchweed bedstraw, Galium aparine) were planted in pots containing the same blend of loam soil and sand and treated with postemergence applications of test chemicals formulated in the same manner. Plants ranged in height from 2 to 10 cm and were in the one- to two-leaf stage for the postemergence treatment. Treated plants and untreated controls were maintained in a greenhouse for approximately 10 days, after which time all treated plants were compared to untreated controls and visually evaluated for injury. Plant response ratings, summarized in Table A, are based on a 0 to 100 scale where 0 is no effect and 100 is complete control. A dash (-) response means no test result.

[2] = system: barnyardgrass (Echinochloa crus-galli); test: Test A preemergence, visual injury rating; conditions: 0 to 100 scale (0 no effect, 100 complete control)
From the text: as §1, §2

[3] = system: kochia (Kochia scoparia); test: Test A preemergence, visual injury rating; conditions: 0 to 100 scale (0 no effect, 100 complete control)
From the text: as §1, §2

[4] = system: pigweed (Amaranthus retroflexus); test: Test A preemergence, visual injury rating; conditions: 0 to 100 scale (0 no effect, 100 complete control)
From the text: as §1, §2

[5] = system: ragweed (common ragweed, Ambrosia elatior); test: Test A preemergence, visual injury rating; conditions: 0 to 100 scale (0 no effect, 100 complete control)
From the text: as §1, §2

[6] = system: giant foxtail (Setaria faberii); test: Test A preemergence, visual injury rating; conditions: 0 to 100 scale (0 no effect, 100 complete control)
From the text: as §1, §2

[7] = system: barnyardgrass (Echinochloa crus-galli); test: Test B flooded paddy test, plant response rating; conditions: 250 g ai/ha; Flood; scale of 0 to 100 where 0 is no effect and 100 is complete control; 13 to 15 days
From the text: (§3) At time of treatment, test pots were flooded to 3 cm above the soil surface, treated by application of test compounds directly to the paddy water, and then maintained at that water depth for the duration of the test. Treated plants and controls were maintained in a greenhouse for 13 to 15 days, after which time all species were compared to controls and visually evaluated. […] A dash (-) response means no test result.

[8] = system: rice (Oryza sativa); test: Test B flooded paddy test, plant response rating; conditions: 250 g ai/ha; Flood; scale of 0 to 100 where 0 is no effect and 100 is complete control; 13 to 15 days
From the text: as §3

[9] = system: sedge, umbrella (small-flower umbrella sedge, Cyperus difformis); test: Test B flooded paddy test, plant response rating; conditions: 250 g ai/ha; Flood; scale of 0 to 100 where 0 is no effect and 100 is complete control; 13 to 15 days
From the text: as §3

[10] = system: ducksalad (Heteranthera limosa); test: Test B flooded paddy test, plant response rating; conditions: 250 g ai/ha; Flood; scale of 0 to 100 where 0 is no effect and 100 is complete control; 13 to 15 days
From the text: as §3

[11] = system: wheat (Triticum aestivum); test: Test A postemergence, visual injury rating; conditions: 0 is no effect, 100 is complete control
From the text: as §1, §2

[12] = system: Italian ryegrass (Lolium multiflorum); test: Test A postemergence, visual injury rating; conditions: 0 is no effect, 100 is complete control
From the text: as §1, §2

[13] = system: corn (Zea mays); test: Test A postemergence, visual injury rating; conditions: 0 is no effect, 100 is complete control
From the text: as §1, §2

[14] = system: barnyardgrass (Echinochloa crus-galli); test: Test A postemergence, visual injury rating; conditions: 0 is no effect, 100 is complete control
From the text: as §1, §2

[15] = system: galium (catchweed bedstraw, Galium aparine); test: Test A postemergence, visual injury rating; conditions: 0 is no effect, 100 is complete control
From the text: as §1, §2

[16] = system: pigweed (Amaranthus retroflexus); test: Test A postemergence, visual injury rating; conditions: 0 is no effect, 100 is complete control
From the text: as §1, §2

[17] = system: ragweed (common ragweed, Ambrosia elatior); test: Test A postemergence, visual injury rating; conditions: 0 is no effect, 100 is complete control
From the text: as §1, §2

[18] = system: blackgrass (Alopecurus myosuroides); test: Test A postemergence, visual injury rating; conditions: 0 is no effect, 100 is complete control
From the text: as §1, §2

[19] = system: giant foxtail (Setaria faberii); test: Test A postemergence, visual injury rating; conditions: 0 is no effect, 100 is complete control
From the text: as §1, §2

[20] = system: kochia (Kochia scoparia); test: Test A postemergence, visual injury rating; conditions: 0 is no effect, 100 is complete control
From the text: as §1, §2

[21] = 125 g ai/ha, 0 to 100 scale, approximately 10 days

Compound | Ryegrass, Italian plant response rating ([1]; 500 g ai/ha) | Barnyardgrass plant response rating ([2]; 125 g ai/ha) | Barnyardgrass plant response rating ([2]; 500 g ai/ha) | Kochia plant response rating ([3]; 500 g ai/ha) | Pigweed plant response rating ([4]; 500 g ai/ha) | Ragweed plant response rating ([5]; 500 g ai/ha) | Foxtail, Giant plant response rating ([6]; 500 g ai/ha) | Wheat plant response rating (0 to 100 scale) ([11]; 500 g ai/ha) | Ryegrass, Italian plant response rating (0 to 100 scale) ([12]; 500 g ai/ha) | Corn plant response rating (0 to 100 scale) ([13]; 500 g ai/ha) | Barnyardgrass plant response rating (0 to 100 scale) ([14]; 500 g ai/ha) | Galium plant response rating (0 to 100 scale) ([15]; 500 g ai/ha) | Pigweed plant response rating (0 to 100 scale) ([16]; 500 g ai/ha) | Ragweed plant response rating (0 to 100 scale) ([17]; 500 g ai/ha) | Blackgrass plant response rating (0 to 100 scale) ([18]; 500 g ai/ha) | Foxtail, Giant plant response rating (0 to 100 scale) ([19]; 500 g ai/ha) | Ryegrass, Italian plant response rating ([1]; 125 g ai/ha) | Kochia plant response rating ([3]; 125 g ai/ha) | Pigweed plant response rating ([4]; 125 g ai/ha) | Ragweed plant response rating ([5]; 125 g ai/ha) | also measured
CCOCc1c(Br)cccc1Oc1ncc(Cl)cn1 [Compound 106] | 10 | 0 | 100 | 90 | 70 | 0 | 100 | 0 | 0 | 10 | 100 | 10 | 20 | 0 | 20 | 70 |  |  |  |  | Plant response rating, Ryegrass, Italian ([1]; 125 g ai/ha): 0; Plant response rating, Kochia ([3]; 125 g ai/ha): 30; Plant response rating, Pigweed ([4]; 125 g ai/ha): 30; Plant response rating, Ragweed ([5]; 125 g ai/ha): 0; Plant response rating, Foxtail, Giant ([6]; 125 g ai/ha): 80; Plant response rating, Barnyardgrass [7]: 0; Plant response rating, Rice [8]: 0; Plant response rating, Sedge, Umbrella [9]: 0; Plant response rating, Ducksalad [10]: 0; Wheat plant response rating [11, 21]: 0; Ryegrass, Italian plant response rating [12, 21]: 0; Corn plant response rating [13, 21]: 0; Barnyardgrass plant response rating [14, 21]: 40; Galium plant response rating [15, 21]: 0; Pigweed plant response rating [16, 21]: 10; Ragweed plant response rating [17, 21]: 0; Blackgrass plant response rating [18, 21]: 0; Foxtail, Giant plant response rating [19, 21]: 10
N#Cc1cnc(Oc2cccc(Br)c2C(=O)OCC(F)(F)F)nc1 [Compound 31] | 0 | 0 | 0 | 0 | 0 | 0 | 0 | 0 | 0 | 0 | 0 | 0 | 0 | 0 | 0 | 0 | 0 | 0 | 0 | 0 | Foxtail, Giant plant response rating ([6]; 125 g ai/ha): 0; Wheat plant response rating (0 to 100 scale) ([11]; 125 g ai/ha): 0; Ryegrass, Italian plant response rating (0 to 100 scale) ([12]; 125 g ai/ha): 0; Corn plant response rating (0 to 100 scale) ([13]; 125 g ai/ha): 0; Barnyardgrass plant response rating (0 to 100 scale) ([14]; 125 g ai/ha): 0; Kochia plant response rating (0 to 100 scale) ([20]; 125 g ai/ha): 0; Kochia plant response rating (0 to 100 scale) ([20]; 500 g ai/ha): 0; Galium plant response rating (0 to 100 scale) ([15]; 125 g ai/ha): 0; Pigweed plant response rating (0 to 100 scale) ([16]; 125 g ai/ha): 0; Ragweed plant response rating (0 to 100 scale) ([17]; 125 g ai/ha): 0; Blackgrass plant response rating (0 to 100 scale) ([18]; 125 g ai/ha): 0; Foxtail, Giant plant response rating (0 to 100 scale) ([19]; 125 g ai/ha): 0
N#Cc1cccc(Oc2ncc(Cl)cn2)c1C(=O)OCC(F)(F)F [Compound 32] | 0 | 0 | 0 | 0 | 30 | 0 | 0 | 0 | 0 | 0 | 0 | 0 | 30 | 0 | 0 | 0 | 0 | 0 | 30 | 0 | Foxtail, Giant plant response rating ([6]; 125 g ai/ha): 0; Wheat plant response rating (0 to 100 scale) ([11]; 125 g ai/ha): 0; Ryegrass, Italian plant response rating (0 to 100 scale) ([12]; 125 g ai/ha): 0; Corn plant response rating (0 to 100 scale) ([13]; 125 g ai/ha): 0; Barnyardgrass plant response rating (0 to 100 scale) ([14]; 125 g ai/ha): 0; Kochia plant response rating (0 to 100 scale) ([20]; 125 g ai/ha): 0; Kochia plant response rating (0 to 100 scale) ([20]; 500 g ai/ha): 0; Galium plant response rating (0 to 100 scale) ([15]; 125 g ai/ha): 0; Pigweed plant response rating (0 to 100 scale) ([16]; 125 g ai/ha): 20; Ragweed plant response rating (0 to 100 scale) ([17]; 125 g ai/ha): 0; Blackgrass plant response rating (0 to 100 scale) ([18]; 125 g ai/ha): 0; Foxtail, Giant plant response rating (0 to 100 scale) ([19]; 125 g ai/ha): 0
